Measured values taken from ChEMBL document CHEMBL3885861, “Open TG-GATES”.

Species: Rattus norvegicus
Test: Open TG-GATES - Regimen: Daily Repeat
Assay type: toxicity, organism-based, Sprague-Dawley
Parameters: regimen Daily Repeat, gender Male, age 6 weeks
Settings: in vivo, po, 1000 mg/kg, route gavage, dose level High; for APTT / Bas / Eos / Fbg / Hb / Ht / Lym / MCH / MCHC / MCV / Mono / Neu / PT / Plat / RBC / Ret / WBC: tissue Blood; for KIDNEY_L / KIDNEY_R / KIDNEY_TOTAL: tissue Kidney; for LIVER: tissue Liver; for A/G / ALP / ALT / AST / BUN / CRE / Ca / Cl / DBIL / GLC / IP / K / LDH / Na / PL / RALB / TBIL / TC / TG / TP / gamma-GTP: tissue Plasma

## O=C(N[C@H](CO)[C@H](O)c1ccc([N+](=O)[O-])cc1)C(Cl)Cl [CHLORAMPHENICOL]
72 h, time 3 day
  TERMINAL_BW: 243.9 g
  APTT: 17 s
  Bas: 0%
  Eos: 1.4%
  Fbg: 313.4 mg/dL
  Hb: 13.3 g/dL
  Ht: 40.7%
  Lym: 87.8%
  MCH: 21.1 pg
  MCHC: 32.7%
  MCV: 64.6 fL
  Mono: 3.2%
  Neu: 7%
  PT: 14.6 s
  Plat: 109.7 x10_4/uL
  RBC: 630.6 x10_4/ul
  Ret: 2.3%
  WBC: 63.9 x10_2/uL
  KIDNEY_L: 1.1 g
  KIDNEY_R: 1.1 g
  KIDNEY_TOTAL: 2.2 g
  LIVER: 13.2 g
  A/G: 0.9
  ALP: 1258.6 IU/L
  ALT: 41 IU/L
  AST: 75 IU/L
  BUN: 16.6 mg/dL
  CRE: 0.2 mg/dL
  Ca: 10.5 mg/dL
  Cl: 106.8 meq/L
  DBIL: 0.012 mg/dL
  GLC: 168.4 mg/dL
  IP: 6.2 mg/dL
  K: 4.3 meq/L
  LDH: 85.6 IU/L
  Na: 141.6 meq/L
  PL: 138.6 mg/dL
  RALB: 2.4 g/dL
  TBIL: 0.05 mg/dL
  TC: 72.6 mg/dL
  TG: 82.6 mg/dL
  TP: 5.2 g/dL
  gamma-GTP: 1 IU/L
[…], time 7 day
  TERMINAL_BW: 275.6 g
  APTT: 16.3 s
  Bas: 0%
  Eos: 1%
  Fbg: 339.2 mg/dL
  Hb: 13 g/dL
  Ht: 40%
  Lym: 84.4%
  MCH: 20.6 pg
  MCHC: 32.5%
  MCV: 63.3 fL
  Mono: 2.4%
  Neu: 11.4%
  PT: 14.8 s
  Plat: 126.1 x10_4/uL
  RBC: 631.6 x10_4/ul
  Ret: 4.9%
  WBC: 79.2 x10_2/uL
  KIDNEY_L: 1.2 g
  KIDNEY_R: 1.2 g
  KIDNEY_TOTAL: 2.4 g
  LIVER: 15.2 g
  A/G: 0.9
  ALP: 1416.6 IU/L
  ALT: 50.6 IU/L
  AST: 77.4 IU/L
  BUN: 15.8 mg/dL
  CRE: 0.2 mg/dL
  Ca: 11.2 mg/dL
  Cl: 105.4 meq/L
  DBIL: 0.012 mg/dL
  GLC: 179.4 mg/dL
  IP: 8.8 mg/dL
  K: 4.1 meq/L
  LDH: 92.8 IU/L
  Na: 143.6 meq/L
  PL: 136.2 mg/dL
  RALB: 2.7 g/dL
  TBIL: 0.052 mg/dL
  TC: 67.8 mg/dL
  TG: 71.8 mg/dL
  TP: 5.8 g/dL
  gamma-GTP: 1 IU/L
[…], time 14 day
  TERMINAL_BW: 327.3 g
  APTT: 15.6 s
  Bas: 0%
  Eos: 1%
  Fbg: 325.6 mg/dL
  Hb: 13.9 g/dL
  Ht: 42.9%
  Lym: 87.2%
  MCH: 20.6 pg
  MCHC: 32.3%
  MCV: 63.6 fL
  Mono: 2.8%
  Neu: 8.4%
  PT: 14.9 s
  Plat: 116.9 x10_4/uL
  RBC: 675.6 x10_4/ul
  Ret: 4.4%
  WBC: 86.3 x10_2/uL
  KIDNEY_L: 1.4 g
  KIDNEY_R: 1.3 g
  KIDNEY_TOTAL: 2.7 g
  LIVER: 18.1 g
  A/G: 0.9
  ALP: 1573.2 IU/L
  ALT: 50.6 IU/L
  AST: 72.6 IU/L
  BUN: 17.8 mg/dL
  CRE: 0.2 mg/dL
  Ca: 11 mg/dL
  Cl: 105.6 meq/L
  DBIL: 0.016 mg/dL
  GLC: 179.2 mg/dL
  IP: 7.2 mg/dL
  K: 4.1 meq/L
  LDH: 53.6 IU/L
  Na: 144 meq/L
  PL: 149.8 mg/dL
  RALB: 2.7 g/dL
  TBIL: 0.046 mg/dL
  TC: 71.4 mg/dL
  TG: 79.2 mg/dL
  TP: 5.7 g/dL
  gamma-GTP: 1 IU/L
[…], time 28 day
  TERMINAL_BW: 381.6 g
  APTT: 16.3 s
  Bas: 0%
  Eos: 1.2%
  Fbg: 303 mg/dL
  Hb: 14.6 g/dL
  Ht: 42.8%
  Lym: 87.4%
  MCH: 19.6 pg
  MCHC: 34.1%
  MCV: 57.3 fL
  Mono: 1.6%
  Neu: 9.2%
  PT: 15.5 s
  Plat: 106.7 x10_4/uL
  RBC: 746.4 x10_4/ul
  Ret: 1.7%
  WBC: 78.6 x10_2/uL
  KIDNEY_L: 1.6 g
  KIDNEY_R: 1.6 g
  KIDNEY_TOTAL: 3.2 g
  LIVER: 20.9 g
  A/G: 0.9
  ALP: 936.8 IU/L
  ALT: 43.6 IU/L
  AST: 72.8 IU/L
  BUN: 17 mg/dL
  CRE: 0.2 mg/dL
  Ca: 10.4 mg/dL
  Cl: 105.8 meq/L
  DBIL: 0.016 mg/dL
  GLC: 164.4 mg/dL
  IP: 6.3 mg/dL
  K: 3.6 meq/L
  LDH: 53.4 IU/L
  Na: 145.2 meq/L
  PL: 131.6 mg/dL
  RALB: 2.6 g/dL
  TBIL: 0.06 mg/dL
  TC: 57.8 mg/dL
  TG: 74.8 mg/dL
  TP: 5.6 g/dL
  gamma-GTP: 1 IU/L
